The record followed here is ChEMBL document CHEMBL1144239, “Identification of novel protein kinase CK1 delta (CK1delta) inhibitors through structure-based virtual screening” (Bioorg Med Chem Lett, 2008).

Experiment [1] is described as follows: Inhibition of CK1.
Experiment [2] is described as follows: Cytotoxicity against cisplatin-resistant human C13 cells after 48 hrs. It counts as functional, cell-based. The settings on record: C13, 48 h.
For experiment [3], the target named is Casein kinase I isoform gamma-1 (Homo sapiens, UniProt Q9HCP0). The experiment in a line: Inhibition of CK1gamma1.
Chain of Casein kinase I isoform gamma-1 (Q9HCP0 whole entry, canonical isoform): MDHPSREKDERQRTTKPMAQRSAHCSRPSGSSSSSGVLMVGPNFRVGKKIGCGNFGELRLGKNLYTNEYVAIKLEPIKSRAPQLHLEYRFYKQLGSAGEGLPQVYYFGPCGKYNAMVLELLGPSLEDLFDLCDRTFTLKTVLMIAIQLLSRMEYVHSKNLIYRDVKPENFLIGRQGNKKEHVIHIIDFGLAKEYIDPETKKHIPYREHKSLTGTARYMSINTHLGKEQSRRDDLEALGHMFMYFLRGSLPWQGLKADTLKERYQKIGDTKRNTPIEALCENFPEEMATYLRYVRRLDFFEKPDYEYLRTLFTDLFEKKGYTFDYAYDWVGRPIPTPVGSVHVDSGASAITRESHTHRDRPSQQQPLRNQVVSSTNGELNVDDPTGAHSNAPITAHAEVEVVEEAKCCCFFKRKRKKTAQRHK
Experiment [4] is described as follows: Cytotoxicity against human ovarian carcinoma cells after 48 hrs. It is filed as functional, cell-based. As to conditions: Ovarian carcinoma cell.
The target of experiment [5] is Casein kinase I isoform alpha (Homo sapiens, UniProt P48729). Description: Inhibition of CK1alpha.
Chain of Casein kinase I isoform alpha (P48729 whole entry, canonical isoform): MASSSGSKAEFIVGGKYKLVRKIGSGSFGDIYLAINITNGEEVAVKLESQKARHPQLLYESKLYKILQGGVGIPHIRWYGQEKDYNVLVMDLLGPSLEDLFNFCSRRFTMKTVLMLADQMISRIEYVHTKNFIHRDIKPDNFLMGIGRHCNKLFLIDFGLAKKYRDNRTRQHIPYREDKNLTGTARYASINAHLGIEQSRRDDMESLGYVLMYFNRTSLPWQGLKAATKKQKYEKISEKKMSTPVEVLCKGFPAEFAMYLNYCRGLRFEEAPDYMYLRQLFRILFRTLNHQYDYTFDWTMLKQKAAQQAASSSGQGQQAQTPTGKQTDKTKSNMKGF
Experiment [6] concerns the target Casein kinase I isoform delta (Homo sapiens, UniProt P48730). The experiment in a line: Inhibition of CK1delta.
In experiment [7] the target is Serine/threonine-protein kinase pim-1 (Homo sapiens, UniProt P11309). The experiment in a line: Inhibition of PIM1.
Experiment [8] concerns the target Tyrosine-protein kinase Lyn (Homo sapiens, UniProt P07948). Description: Inhibition of Lyn.
The nature of experiment [9]: Inhibition of CK2.
Experiment [10] has as its target Dual specificity tyrosine-phosphorylation-regulated kinase 1A (Homo sapiens, UniProt Q13627). Description: Inhibition of DYRK1a.
Experiment [11] has as its target Tyrosine-protein kinase SYK (Homo sapiens, UniProt P43405). The experiment in a line: Inhibition of Syk.
The target of experiment [12] is ALK tyrosine kinase receptor (Homo sapiens, UniProt Q9UM73). Description: Inhibition of GST tagged ALK.
Chain of ALK tyrosine kinase receptor (Q9UM73 whole entry): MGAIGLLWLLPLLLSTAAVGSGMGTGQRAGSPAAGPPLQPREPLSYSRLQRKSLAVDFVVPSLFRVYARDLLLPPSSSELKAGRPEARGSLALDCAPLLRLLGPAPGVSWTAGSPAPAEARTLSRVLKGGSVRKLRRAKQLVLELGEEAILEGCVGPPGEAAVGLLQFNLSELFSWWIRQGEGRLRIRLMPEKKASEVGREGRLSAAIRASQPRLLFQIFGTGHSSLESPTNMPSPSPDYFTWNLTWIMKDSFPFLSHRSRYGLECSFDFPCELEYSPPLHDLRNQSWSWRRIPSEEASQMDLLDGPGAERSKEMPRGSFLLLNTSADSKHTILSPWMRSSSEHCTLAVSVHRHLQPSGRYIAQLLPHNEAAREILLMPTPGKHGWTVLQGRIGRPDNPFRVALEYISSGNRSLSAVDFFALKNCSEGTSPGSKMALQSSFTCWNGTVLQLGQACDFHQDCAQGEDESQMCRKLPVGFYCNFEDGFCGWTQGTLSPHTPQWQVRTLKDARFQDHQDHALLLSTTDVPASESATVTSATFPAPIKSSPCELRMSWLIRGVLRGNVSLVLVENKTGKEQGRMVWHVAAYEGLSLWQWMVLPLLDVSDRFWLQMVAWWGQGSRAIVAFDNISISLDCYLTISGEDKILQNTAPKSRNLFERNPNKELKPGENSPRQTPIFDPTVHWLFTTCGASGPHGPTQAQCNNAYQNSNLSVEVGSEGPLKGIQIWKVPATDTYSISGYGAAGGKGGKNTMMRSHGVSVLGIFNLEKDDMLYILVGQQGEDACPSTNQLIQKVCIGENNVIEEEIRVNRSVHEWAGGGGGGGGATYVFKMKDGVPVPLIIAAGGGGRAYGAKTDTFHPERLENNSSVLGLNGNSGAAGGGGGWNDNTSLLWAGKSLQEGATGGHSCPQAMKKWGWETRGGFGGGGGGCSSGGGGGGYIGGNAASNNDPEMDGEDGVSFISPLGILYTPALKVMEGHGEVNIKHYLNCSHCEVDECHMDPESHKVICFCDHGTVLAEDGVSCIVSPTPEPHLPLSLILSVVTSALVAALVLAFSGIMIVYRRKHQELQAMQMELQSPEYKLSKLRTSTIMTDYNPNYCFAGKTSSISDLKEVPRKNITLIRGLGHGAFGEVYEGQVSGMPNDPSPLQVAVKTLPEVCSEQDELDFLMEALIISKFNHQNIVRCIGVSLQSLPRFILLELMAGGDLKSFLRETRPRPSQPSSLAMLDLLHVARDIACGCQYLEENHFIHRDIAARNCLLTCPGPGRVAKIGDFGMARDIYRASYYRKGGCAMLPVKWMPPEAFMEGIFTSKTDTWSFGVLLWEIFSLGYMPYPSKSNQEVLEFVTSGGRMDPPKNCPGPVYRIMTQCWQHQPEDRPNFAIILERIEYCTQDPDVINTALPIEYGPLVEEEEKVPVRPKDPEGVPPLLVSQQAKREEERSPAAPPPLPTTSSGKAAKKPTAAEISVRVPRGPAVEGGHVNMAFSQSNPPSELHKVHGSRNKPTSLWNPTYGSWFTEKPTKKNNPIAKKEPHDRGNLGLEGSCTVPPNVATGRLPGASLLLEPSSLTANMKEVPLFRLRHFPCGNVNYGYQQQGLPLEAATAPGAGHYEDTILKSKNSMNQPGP
Experiment [13] in a line: Inhibition of PKA.
Experiment [14] concerns the target Tyrosine-protein kinase Fgr (Homo sapiens, UniProt P09769). Description: Inhibition of Fgr.
Experiment [15] addresses Homeodomain-interacting protein kinase 2 (Homo sapiens, UniProt Q9H2X6). The experiment in a line: Inhibition of HIPK2.
Experiment [16] addresses Tyrosine-protein kinase CSK (Homo sapiens, UniProt P41240). Description: Inhibition of CSK.

Chain of Casein kinase I isoform delta (P48730 whole entry, canonical isoform): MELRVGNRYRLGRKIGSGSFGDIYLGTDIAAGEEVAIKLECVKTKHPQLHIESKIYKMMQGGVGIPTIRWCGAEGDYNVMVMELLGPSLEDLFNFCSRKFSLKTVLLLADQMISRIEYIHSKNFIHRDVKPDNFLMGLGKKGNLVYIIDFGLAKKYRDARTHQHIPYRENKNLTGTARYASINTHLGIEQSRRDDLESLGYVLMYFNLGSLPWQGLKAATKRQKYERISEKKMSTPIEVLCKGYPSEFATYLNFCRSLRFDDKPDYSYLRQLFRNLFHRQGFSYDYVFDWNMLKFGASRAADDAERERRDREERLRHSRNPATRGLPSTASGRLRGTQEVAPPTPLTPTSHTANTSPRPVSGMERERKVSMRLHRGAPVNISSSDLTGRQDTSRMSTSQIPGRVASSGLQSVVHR
Chain of Homeodomain-interacting protein kinase 2 (Q9H2X6 whole entry): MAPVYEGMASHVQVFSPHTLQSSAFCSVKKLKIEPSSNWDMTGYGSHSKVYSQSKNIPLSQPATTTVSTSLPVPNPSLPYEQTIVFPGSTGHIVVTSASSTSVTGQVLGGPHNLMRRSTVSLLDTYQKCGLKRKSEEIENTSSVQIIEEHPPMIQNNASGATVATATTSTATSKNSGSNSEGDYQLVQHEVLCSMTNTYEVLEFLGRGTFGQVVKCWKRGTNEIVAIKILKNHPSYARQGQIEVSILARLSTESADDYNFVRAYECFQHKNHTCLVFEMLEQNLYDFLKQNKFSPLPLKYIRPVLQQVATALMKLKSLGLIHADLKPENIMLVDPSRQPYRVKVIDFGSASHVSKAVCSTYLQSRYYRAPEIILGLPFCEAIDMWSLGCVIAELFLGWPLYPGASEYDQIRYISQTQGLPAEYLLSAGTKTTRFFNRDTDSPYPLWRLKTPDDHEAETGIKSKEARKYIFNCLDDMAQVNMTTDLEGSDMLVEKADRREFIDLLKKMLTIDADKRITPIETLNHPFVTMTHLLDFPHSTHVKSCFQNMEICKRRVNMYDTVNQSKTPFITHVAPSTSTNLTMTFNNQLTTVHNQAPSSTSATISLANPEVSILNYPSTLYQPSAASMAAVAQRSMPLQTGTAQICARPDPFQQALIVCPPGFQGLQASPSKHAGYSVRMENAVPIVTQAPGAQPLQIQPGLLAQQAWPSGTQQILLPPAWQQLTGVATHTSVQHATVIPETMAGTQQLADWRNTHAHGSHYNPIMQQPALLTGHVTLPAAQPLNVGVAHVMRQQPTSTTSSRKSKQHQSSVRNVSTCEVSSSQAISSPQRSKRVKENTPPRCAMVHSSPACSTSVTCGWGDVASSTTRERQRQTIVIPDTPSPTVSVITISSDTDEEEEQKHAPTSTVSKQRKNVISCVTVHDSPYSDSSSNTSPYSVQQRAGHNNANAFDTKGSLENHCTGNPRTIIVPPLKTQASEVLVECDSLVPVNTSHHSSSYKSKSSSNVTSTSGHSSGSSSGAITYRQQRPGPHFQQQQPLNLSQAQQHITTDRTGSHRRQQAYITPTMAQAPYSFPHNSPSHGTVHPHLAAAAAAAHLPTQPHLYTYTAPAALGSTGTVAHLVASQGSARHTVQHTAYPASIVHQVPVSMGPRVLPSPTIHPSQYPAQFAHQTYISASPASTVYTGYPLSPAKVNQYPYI
Chain of Tyrosine-protein kinase Lyn (P07948 whole entry): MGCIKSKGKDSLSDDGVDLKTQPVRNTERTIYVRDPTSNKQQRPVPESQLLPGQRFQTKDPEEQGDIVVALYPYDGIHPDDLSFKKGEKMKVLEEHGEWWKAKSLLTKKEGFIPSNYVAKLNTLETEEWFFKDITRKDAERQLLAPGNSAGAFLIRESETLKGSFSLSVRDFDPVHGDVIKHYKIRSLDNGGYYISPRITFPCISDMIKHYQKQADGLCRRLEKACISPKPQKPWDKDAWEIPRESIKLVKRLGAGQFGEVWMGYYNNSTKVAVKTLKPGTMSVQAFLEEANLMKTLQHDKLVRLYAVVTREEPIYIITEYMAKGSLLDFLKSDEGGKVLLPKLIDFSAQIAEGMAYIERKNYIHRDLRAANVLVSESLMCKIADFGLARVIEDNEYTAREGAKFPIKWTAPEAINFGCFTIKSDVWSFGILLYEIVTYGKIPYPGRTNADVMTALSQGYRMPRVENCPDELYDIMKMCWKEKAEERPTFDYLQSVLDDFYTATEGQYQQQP
Chain of Tyrosine-protein kinase Fgr (P09769 whole entry): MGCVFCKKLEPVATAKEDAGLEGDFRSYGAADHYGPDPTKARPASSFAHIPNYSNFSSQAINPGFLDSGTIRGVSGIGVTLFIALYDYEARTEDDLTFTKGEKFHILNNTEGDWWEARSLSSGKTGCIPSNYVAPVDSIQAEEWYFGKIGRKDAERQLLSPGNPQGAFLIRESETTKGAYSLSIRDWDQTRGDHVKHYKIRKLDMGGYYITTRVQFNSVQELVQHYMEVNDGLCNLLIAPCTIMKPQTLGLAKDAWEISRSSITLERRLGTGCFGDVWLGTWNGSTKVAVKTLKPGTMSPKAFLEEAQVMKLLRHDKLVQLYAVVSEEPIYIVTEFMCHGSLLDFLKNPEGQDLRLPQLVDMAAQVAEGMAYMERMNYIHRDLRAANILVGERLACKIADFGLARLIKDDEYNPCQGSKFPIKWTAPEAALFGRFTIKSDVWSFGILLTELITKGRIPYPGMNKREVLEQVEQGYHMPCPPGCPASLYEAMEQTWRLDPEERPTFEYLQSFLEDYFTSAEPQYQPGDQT

By IC50 is commonly meant the concentration that inhibits the measured activity by half. Read a low IC50 as greater potency in that assay. Regarding `NC(=O)c1ccc(-c2nc(-c3ccc4c(c3)OCCO4)c(-c3ccccn3)[nH]2)cc1`, the IC50 in [1] came out at 0.3 µM.
Consider `Nc1ccc(O)c2c1C(=O)c1ccccc1C2=O`, for which the IC50 in [2] came out at 8 µM; in experiment [3], 26.2 µM; in experiment [4] it was 122 µM; in [5], 4 µM; in experiment [6], 0.66 µM.
The compound `NCCNS(=O)(=O)c1ccc(Cl)c2ccncc12` came in with an IC50 in [1] of 6 µM.
Consider `O=C1c2ccccc2C(=O)c2c(O)ccc(O)c21` [QUINIZARIN], for which the IC50 in experiment [3], in experiment [5] and in [6] was over 40 µM each time.
With `COc1cc(OC)c(C=C2C(=O)Nc3ccccc32)c(OC)c1` [IC261], the IC50 was 1 µM in [1], over 40 µM in experiment [3], 1.24 µM in [5] and 2.57 µM in [6].
As to `Nc1ccc(N)c2c1C(=O)c1ccccc1C2=O`, the IC50 in experiment [2] is 87.9 µM; in [3], 34 µM; in [4], 14.4 µM; in experiment [5], 4 µM; in experiment [7], 24.7 µM; in [8], over 40 µM. Also, the IC50 in experiment [9] was 18 µM; in experiment [6] it was 0.33 µM; in experiment [10], 3.6 µM; in experiment [11], over 40 µM; in [12], over 40 µM; in [13] it was over 40 µM. Moreover, the IC50 was 24 µM in experiment [14], 3.3 µM in experiment [15] and over 40 µM in experiment [16].
